Assay [1] concerns Human neuroblastoma cell line (SH-SY5Y). Kind of assay: Microculture tetrazolium assay (MTA), cytotoxicity. The note with it: Homo sapiens, 96 h. From the text:
(§1) The numerous antimitotic drugs already developed and therapeu- tically used for a large number of pathologies belong to different classes based on their chemical structure and other distinctive features. Antimitotic drugs usually target the tubulin/microtubule network of the cytoskeleton that is formed by assembly of cyto- plasmic tubulin dimers. The stability of the different microtubular structures varies considerably; some of their functions depend on their lability. The lability is augmented by the extreme sensitivity to various drugs. Several synthetic and natural compounds interact specifically with tubulin and/or microtubule, fundamentally destroying its dynamic character and leading to cell death. […] Because of their extensive clinical use, it is important to synthesize additional agents having at least the same biological activity. […] Nevertheless, it is unclear yet how the anti-calmodulin activity of these drugs is related to their desired and undesired pharmacological effects. […] The synthesis of the KAR derivatives are presented. […] Taxol, GTP and trifluoperazine were purchased from Sigma. All organic reagents for synthesis of the new compounds were obtained from Aldrich and were of the highest grade. All other chemicals were reagent grade commercial preparations. […] Tubulin was stored in 1 M sucrose, 10 mM sodium phosphate buffer, 0.5 mM magnesium chloride and 0.1 mM GTP, pH 7.0, at -80C and dialysed against the appropriate buffer before use. […] PFK, aldolase and glycerol-3-phosphate dehydrogenase- triosephosphate isomerase purified from rabbit skeletal muscle were purchased in ammonium sulphate suspensions from Sigma or Boehringer. The enzyme suspensions were centrifuged at 10 000g for 5 min. The pellets were suspended in the appropriate buffer, then the enzymes were gel filtered or dialysed in the same buffer to remove ammonium sulphate. […] (Figure 1B; R1 , CH3; R2 , CH2 CH2 Cl). […] After 2 h incubation at room temperature, 200 ml dried toluene was added to the reaction mixture. […] The mixture was stirred for 30 min. After separation of the organic phase, it was washed with water (3 x 30 ml) and dried with potassium sulphate and evaporated on a water bath of 35-40C at 20-27 hPa. The resulting material was chromatographed on silica gel (500 g, bead size of 0.040- 0.063 mm) column (30 mm x 500 mm) using ethyl acetate/ethanol (9:1) mixture as eluent. […] The mixture was kept for 4 h at room temperature and then evaporated on a water bath at 40C under a vacuum of 80 hPa to a final volume of 5-6 ml. […] (Figure 1B, R1 , CHO; R2 , CH2 CH2 Cl). […] Synthesis of KAR-4 [3-allyl-2,4-dioxo-3,5-spiro-oxazolidino- 4-deacetoxy-vinblastine] (Figure 1B; R1 , CH3; R2 , CH2 CH=CH2 ). […] NMR measurements were carried out on a Varian Unity plus-500 instrument (500 MHz for 1H and 125 MHz for 13C) in DMSO. Chemical shifts were determined relative to dTMS = 0.00 p.p.m. 1H and 13C signal assignments were verified by a concerted use of two-dimensional 1H-1H and 1H-13C shift correlation methods (DQFCOSY, HSQC, HMBC) and NOESY experiments. The gradient-enhanced DQFCOSY, HSQC, HMBC and NOESY experiments were recorded by using the standard spectrometer software package. A mixing time of tmix = 0.5 s was used for the NOESY experiments.

Assay [2] has as its system tubulin. Kind of assay: Taxol-induced tubulin polymerization, turbidity at 350 nm. Type of assay: biochemical, calf. The note with it: taxol-induced assembly, MES buffer pH 6.8, 37C; average of three independent measurements; read-out: Anti-tubulin effect, turbidity at 350 nm, IC50.
Excerpt: as §1

In assay [3] the test system is tubulin/microtubule, PFK-bundled microtubules. Kind of assay: Tubulin polymerization with or without PFK (bundled vs single microtubules): turbidity and pelleting with SDS-PAGE. It counts as biochemical, calf. Conditions: 10 M tubulin, 2 M drug, 20 µM taxol, SDS-PAGE of supernatant and pellet. From the text:
The numerous antimitotic drugs already developed and therapeu- tically used for a large number of pathologies belong to different classes based on their chemical structure and other distinctive features. Antimitotic drugs usually target the tubulin/microtubule network of the cytoskeleton that is formed by assembly of cyto- plasmic tubulin dimers. The stability of the different microtubular structures varies considerably; some of their functions depend on their lability. The lability is augmented by the extreme sensitivity to various drugs. Several synthetic and natural compounds interact specifically with tubulin and/or microtubule, fundamentally destroying its dynamic character and leading to cell death. […] Because of their extensive clinical use, it is important to synthesize additional agents having at least the same biological activity. […] Nevertheless, it is unclear yet how the anti-calmodulin activity of these drugs is related to their desired and undesired pharmacological effects. […] The synthesis of the KAR derivatives are presented. […] Taxol, GTP and trifluoperazine were purchased from Sigma. All organic reagents for synthesis of the new compounds were obtained from Aldrich and were of the highest grade. All other chemicals were reagent grade commercial preparations. […] Tubulin was stored in 1 M sucrose, 10 mM sodium phosphate buffer, 0.5 mM magnesium chloride and 0.1 mM GTP, pH 7.0, at -80C and dialysed against the appropriate buffer before use. […] PFK, aldolase and glycerol-3-phosphate dehydrogenase- triosephosphate isomerase purified from rabbit skeletal muscle were purchased in ammonium sulphate suspensions from Sigma or Boehringer. The enzyme suspensions were centrifuged at 10 000g for 5 min. The pellets were suspended in the appropriate buffer, then the enzymes were gel filtered or dialysed in the same buffer to remove ammonium sulphate. […] (Figure 1B; R1 , CH3; R2 , CH2 CH2 Cl). […] After 2 h incubation at room temperature, 200 ml dried toluene was added to the reaction mixture. […] The mixture was stirred for 30 min. After separation of the organic phase, it was washed with water (3 x 30 ml) and dried with potassium sulphate and evaporated on a water bath of 35-40C at 20-27 hPa. The resulting material was chromatographed on silica gel (500 g, bead size of 0.040- 0.063 mm) column (30 mm x 500 mm) using ethyl acetate/ethanol (9:1) mixture as eluent. […] The mixture was kept for 4 h at room temperature and then evaporated on a water bath at 40C under a vacuum of 80 hPa to a final volume of 5-6 ml. […] (Figure 1B, R1 , CHO; R2 , CH2 CH2 Cl). […] Synthesis of KAR-4 [3-allyl-2,4-dioxo-3,5-spiro-oxazolidino- 4-deacetoxy-vinblastine] (Figure 1B; R1 , CH3; R2 , CH2 CH=CH2 ). […] NMR measurements were carried out on a Varian Unity plus-500 instrument (500 MHz for 1H and 125 MHz for 13C) in DMSO. Chemical shifts were determined relative to dTMS = 0.00 p.p.m. 1H and 13C signal assignments were verified by a concerted use of two-dimensional 1H-1H and 1H-13C shift correlation methods (DQFCOSY, HSQC, HMBC) and NOESY experiments. The gradient-enhanced DQFCOSY, HSQC, HMBC and NOESY experiments were recorded by using the standard spectrometer software package. A mixing time of tmix = 0.5 s was used for the NOESY experiments. […] Mass spectrum was recorded on a Kratos MS 80 instrument using FAB.

Assay [4] has as its target T1, calmodulin (Bos taurus, UniProt P62157).
T1 construct: Calmodulin from bovine brain was purified to homogeneity using Phenyl-Sepharose (Pharmacia) chromatography; from tissue; host or cells: bovine brain
Also noted: method as in Molnar et al (1995). Conditions: ref Molnar et al (1995); cited from earlier work.

In assay [5] the test system is mouse leukaemia P388. Set-up: method as in Orosz et al, 1997a. Conditions: P388, 0.2 mg kg-1, eightfold treatment; ref Orosz et al, 1997a; cited from earlier work.

Each structure is given as a SMILES string. Read-outs that look alike come from different tables or passages of the source.

For `CC[C@]1(O)C[C@@H]2CN(CCc3c([nH]c4ccccc34)[C@@](C(=O)OC)(c3cc4c(cc3OC)N(C)[C@H]3[C@@](O)(C(=O)OC)[C@H](OC(C)=O)[C@]5(CC)C=CCN6CC[C@]43[C@@H]65)C2)C1` [Vinblastine, vinblastine, reference compound], the IC50 (as a rule, the concentration that gives 50% inhibition) came out at 5e-09 M in assay [1] (read-out: Cytotoxicity MTA IC50), 5e-09 M in assay [1] (read-out: Cytotoxicity MTA IC50 (M)) and […] in assay [2]. Further, in assay [3] (no PFK), the “tubulin partition in pelleting experiment, without PFK” value was “practically all tubulin appears in the super- natants”. For the same compound, the “tubulin partition in pelleting experiment, with PFK (bundled microtubules)” value in assay [3] (2 M PFK) is on record as “significant amount of tubulins were assembled into microtubules”. Also, the “Anti-calmodulin activity: Efficiency (%)” value in assay [4] was 61%. Also, in assay [5], the T/C (in general, the ratio of treated to control) is on record as 199%.

The values above are taken from publication PMC2362735, “New semisynthetic vinca alkaloids: chemical, biochemical and cellular studies” (British Journal of Cancer, 1999).
